From patent US20240261315A1 (Omikron Italia S.r.l., priority 2021, published 2024) come the findings set out here.

One series has as its system db/db mice. Put plainly: SD-OCT measurement of retinal layer thickness in db/db mice. As to conditions: 15 days oral treatment; for GC/IPL layer thickness / INL layer thickness / RNFL layer thickness: SD-OCT; for alteration in the thickness of retinal layers: vs placebo or healthy control. It counts as in vivo. The text has this:
(§1) The db/db mice have a mutation in the leptin receptor gene and they are an animal model of retinal neurodegeneration. Such model is useful to mime the pathophysiological events which are found in neurodegenerative pathologies such as glaucoma.
(§2) 20 db/db […] (BKS.Cg-+Leprdb/+Leprdb/OlaHsd, males, 10 weeks) were randomized in 5 groups and treated for 15 days by oral route with oral solutions based on: • 1. Citicoline 0.5% (Cit.) in 10% lactose solution administered with nasogastric tube (SNG); • 2. […] 10% lactose solution (Placebo) administered with SNG; • 5. Healthy, non-diabetic control (Control).
On day 15, 1 hour after the administration of the several treatments, the mice were subjected to (i) very high-resolution Spectral Domain Optical Coherence Tomography (SD-OCT), to obtain, in vivo, detailed images relating to the morphology of the different retinal layers. The mice were subjected to anaesthesia induced by single intraperitoneal injection of 80 mg/ml Ketamine, xylazine 12 mg/ml (Sigma-Adrich). Subsequently, to induce mydriasis, one single drop of 0.5% tropicamide was instilled and then each mouse positioned in front of the objective of OCT.
For all animals only the right eye was examined and the average obtained from three consecutive retinal scanning for each eye was considered for each layer. The OCT images were acquired through bidimensional scanning (B-scan) combined to noise reduction software with ART (automatic real time) and with a visual field of 30 degrees focalized on the head of the optic nerve. After OCT examination the animals were sacrificed by cervical dislocation and the eyes immediately enucleated.

Details of series [1]: species or system Sprague-Dawley rats. As to conditions: male, Sprague-Dawley, rat, in vivo. The procedure: The bioavailability of citicoline existing in the composition, the invention relates to, was surveyed by making a bioavailability study on Sprague-Dawley rats. In particular, 30 Sprague-Dawley male rats, weighing 175 and 225 g, were subjected fasting 16 hours before administration.
For the preparation of the radiomarked formulations 14C-methylCiticoline and […] were used.
The preparations were purified by ion-exchange chromatography by using isobutyric acid:water-ammonia:EDTA (500:280:21:8), n-butanol:acetic acid:water (12:3:5), ethanol:1 mol/l ammonium acetate pH 7 (5:2), ethanol:saturated borax (8%):0.5 mol/l EDTA:5 mol/l ammonium acetate (220:80:0.5:20).
The samples were analysed with a liquid scintillator counter LSC, according to the programme for ^14C.
For the quantitative analysis Packard soluene (solubilizing agent), H2O2 (bleaching agent) and Packard Instagel (scintillator) were used as reagents.
The formulations were administered at the dose of 5 mg/kg respectively: Group 1, intravenously in the jugular vein; Group 2, in oral solution administered by nasogastric tube; Group 3, in tablets dissolved in saline solution and administered by nasogastric tube.
The collections of blood samples of about […] were obtained at programmed time (after administration at 10′, 20′, 30′, 1 h, 2 h, 3 h, 4 h, 5 h, 6 h, 7 h, 24 h). […]

The test system of series [2] is apoptotic cells in the GCL retinal layer. Kind of series: TUNEL assay of cellular apoptosis in retina of db/db mice. The series is classed as in vivo. As to conditions: vs vehicle.
Excerpt: as §1, §2
(iv) The search for events of cellular apoptosis was performed through TUNEL assay by using the kit DeadEnd™ Fluorometric TUNEL System (PROMEGA, Madison, WI, USA). The TUNEL (Terminal Transferase dUTP Nick-End Labeling) colouring was performed by using the Kit system TUNEL Fluorometric DeadEnd (PROMEGA, Madison, WI, USA). Cryosections of retina were permeabilized by incubation for 2 minutes on ice with 0.1% Triton X-100 in 0.1% sodium citrate. The secondary antibody was Alexa 488 goat-anti-rabbit. For the evaluation by means of confocal laser scanning microscopy the excitation wavelength was 488 nm (detection in the range 515-565 nm (green)).

A further series concerns retinal ganglion cells. Kind of series: Clinical observation: electro-functional test, PERG. It counts as in vivo, human. The note with it: after 6 months of treatment, in addition to hypotensive therapy, 3 patients. The procedure: 12 randomized patients were included in 4 groups: • CIT. GROUP-3 patients treated with citicoline in oral solution 10 ml/die corresponding to 500 mg/die of citicoline, in addition to the hypotensive therapy; • NIC. […] The patients were treated and followed for 6 months. At baseline and after 6 months of treatment complete eye examination including visual acuity, control of the intraocular pressure (IOP) with Goldmann tonometry (GAT); visual field testing, electro-functional and morphological examination were performed. Then (2) electro-functional test was performed: electroretinogram from PERG pattern and of the PEV visual evoked potentials to evaluate the bioelectric responses respectively of the retinal ganglion cells and of the visual cortex evoked from the visual stimuli. The patients were positioned in an acoustically insulated semi-dark room, in front of the display surrounded by a uniform field of luminance of 5 cd/m2. […] The signal to PERG and PEV was recorded by a small electrode of Ag/AgCl positioned respectively above the lower eyelid and on the scalp. […] The peak-peak widths were measured at PERG P50-N95 for each wave. […] During a recording session, simultaneous PERG and PEV were recorded at least twice (between two and six times) and the resulting waveforms were overlapped to verify the repeatability of results. […]

Broadly, the bioavailability is dose-corrected exposure relative to a reference, in per cent. The low end stands for poor availability, the high end for good availability. For `NC(=O)c1cccnc1` [Nicotinamide], in the series with db/db mice, the GC/IPL layer thickness is reported as 58.8 ± 5.2 μm, the INL layer thickness is on record as 21.1 ± 2.1 μm, the RNFL layer thickness came out at 21.8 ± 2.4 μm and the “alteration in the thickness of retinal layers” value was “less reduction in the thickness of the layers”. The bioavailability in series [1] is around 100%. The “apoptosis in GCL retinal layer (TUNEL)” value in series [2] is “lower apoptosis levels than the diabetic mice treated with the vehicle but with not statistically significant levels”. For the same molecule, the “PERG P50-N95 A” value in the series with retinal ganglion cells was 1.74 (±0.21) microV.

In the case of `C[N+](C)(C)CCOP(=O)([O-])OP(=O)(O)OC[C@H]1O[C@@H](n2ccc(N)nc2=O)C(O)C1O` (some centres unmarked) [Citicoline, citidin-5′-difosfocholine], in the series with db/db mice, the GC/IPL layer thickness is 59.3 ± 4.8 μm, the INL layer thickness is on record as 20.9 ± 2.5 μm, the RNFL layer thickness was found to be 22.3 ± 1.3 μm and the “alteration in the thickness of retinal layers” value is listed as “less reduction in the thickness of the layers”. The molecule further gave a bioavailability in series [1] of around 100%. Also, the “apoptosis in GCL retinal layer (TUNEL)” value in series [2] was “lower apoptosis rate with respect to the diabetic mice treated with the vehicle”. Moreover, the “PERG P50-N95 A” value in the series on retinal ganglion cells is on record as 1.77 (±0.27) microV.
